Measurements: patent US20100143456A1, “MODEL MEMBRANE SYSTEMS” (priority 1999, published 2010)

Tested on: P815 cells
Test: FACS analysis of hexa-histidine-tagged B7.1 and CD40 engrafted onto P815 cells via incorporated lipid
Format: cell-based, murine
Details: 0.1 mM lipid 30 min 37° C., then 6His B7.1 and CD40 each ~20 μg/ml, streptavidin-FITC
Procedure: FIG. 2 is the fluorescence profile, as measured by fluorescence-activated cell sorting, of p815 cells engrafted with biotinylated and hexa-histidine-tagged CD40 and B7.1 molecules and then stained with streptavidin-FITC.
Cultured P815 tumor cells were washed twice in PBS to remove proteins from the culture media and suspended to 1×10^7 cells/ml in PBS. The cells were then aliquoted into 96-well V-bottom Seroeluster plates (Costar, Corning, N.Y.) at […] and incubated with 125 μM NTA-DTDA (alone or as a mixture with other lipids as indicated) or 125 μM DMPC (control) in PBS containing 125 μM Zn^2+, for 40 min at 37° C. […] The relative level of NTA-DTDA incorporated was routinely assessed by FACS analysis (see below) after incubating the cells with biotinylated 6His peptide (B-6His) (0.2 μg/ml) for 30 min at 4° C., washing twice with PBS-0.1% v/v BSA, and then staining with streptavidin-FITC. The cells were incubated with streptavidin-FITC (33 μg/ml) in PBS containing 1% v/v BSA (PBS-1% v/v-BSA) for 30 min at 4° C., washed three times with PBS-1% v/v BSA, fixed with 2% v/v paraformaldehyde in PBS, and then analyzed for FITC-fluorescence by FACS. […]
The histograms in FIG. 2 show fluorescence-activated cell sorting (FACS) profiles of murine mastocytoma P815 cells carrying engrafted recombinant hexa-histidine-tagged murine B7.1 and CD40. […]

SMILES: CCCCCCCCCCCCCC(=O)OC[C@H](COP(=O)([O-])OCC[N+](C)(C)C)OC(=O)CCCCCCCCCCCCC [DMPC, di-myristoyl-phosphatidylcholine]
- level of fluorescence after staining with either monoclonal antibody (biotinylated mAb): low level of fluorescence

SMILES: CCCCCCCCCCCCCCN(CCCCCCCCCCCCCC)C(=O)CCC(=O)NCCCC[C@@H](C(=O)O)N(CC(=O)O)CC(=O)O [NTA-DTDA, N^α,N^αbis[carboxymethyl]-N^ε[(DTDA)suc]-L lysine]
- fluorescence of P815 cells relative to cells pre-incubated with DMPC (Control) (biotinylated anti-B7.1 or anti-CD40 mAb): 10-100 fold
